Data as given in patent US7288533B2, “Topical application for treating toenail fungus” (priority 2004, dated 2007).

Columns and labels:
Candida albicans = experiment: Hard surface carrier disinfection test (AOAC 991.47), colony count; type: cell-based; details: for Colonies Of Candida Albicans Observed: carrier 15 min in culture; for Effect on the fungus: 25% loading, summary of Examples 1-15
Description: The compositions are evaluated according to an approved surface carrier disinfection test (Official Methods of Analysis of the Association of Official Analytical Chemists protocol 991.47: Hard surface carrier test method). Cultures of Candida albicans are grown for 24 hours at room temperature in trypsin soy broth to a density of approximately McFarland standard #10. Sterile glass cylinders (Belco Cat. #2090-[…]) serve as carriers. The carriers are coated with the test composition or the control composition and subsequently submerged in 5 ml of the stock culture and allowed to remain there for 15 minutes. The carriers are aseptically transferred to sterile, dry Whatman #1 filter paper, and excess droplets of the inoculation medium are removed. The carriers are dried at 37° C. for 40 minutes and then aseptically transferred to 5 ml of trypsin soy broth. They are then sonicated for 10 minutes in as water bath at 25° C. Tubes containing the sonicated carriers are vortexed, and a portion of the medium is placed onto trypsin soy agar plates, and incubated overnight at 37° C. Microbial growth is assessed by counting colonies.

[1] = tested for use as a possible sedative; cited from earlier work

| Structure (SMILES) | Colonies Of Candida Albicans Observed (Candida albicans; 0.1 wt. % in mineral oil) | Colonies Of Candida Albicans Observed (Candida albicans; 1.0 wt. % in mineral oil) | Colonies Of Candida Albicans Observed (Candida albicans; 10 wt. % in mineral oil) | Effect on the fungus (Candida albicans) | Colonies Of Candida Albicans Observed (Candida albicans; 25 wt. % in mineral oil) | Colonies Of Candida Albicans Observed (Candida albicans; 50 wt. % in mineral oil) | Colonies Of Candida Albicans Observed (Candida albicans; 75 wt. % in mineral oil) | Toxicity [1] |
| --- | --- | --- | --- | --- | --- | --- | --- | --- |
| CC1CCOB(OCCC(C)OB2OCCC(C)O2)O1 (stereo not drawn) [compound S1, 2,2′-(1-methyltrimethylenedioxy) bis-(4-methyl-1,3,2-dioxaborinane)] | 8 | 2 | 0 | completely destroys the fungus | 0 | 0 | 0 | – |
| CCCC1(C)COB(c2ccc(C)cc2)OC1 [I.S. 813, 2-(p-tolyl)-(5-methyl, 5-propyl)-1,3,2,-dioxiborinane] | – | – | – | – | – | – | – | very low |
| CC1CC(C)(C)OB(OB2OC(C)CC(C)(C)O2)O1 (stereo not drawn) [compound S2, 2,2′-oxybis (4,4,6-trimethyl-1,3,2-dioxaborinane)] | 11 | 1 | 0 | completely destroys the fungus | 0 | 0 | 0 | – |
